Bounds are passed on as bounds.

Among the data in US20240199546A1, “INHIBITORS OF SOLUTE CARRIER FAMILY 6A MEMBER 19 (SLC6A19) AND METHODS OF USE THEREOF” (Maze Therapeutics, Inc., priority 2022, published 2024) are IC50 values, retold here.

The experiment concerns the target T1, human SLC6A19 and TMEM27 (Homo sapiens, UniProt Q695T7).
T1 construct: expressed in transfected cells
T1 sequence (Q695T7 1-634): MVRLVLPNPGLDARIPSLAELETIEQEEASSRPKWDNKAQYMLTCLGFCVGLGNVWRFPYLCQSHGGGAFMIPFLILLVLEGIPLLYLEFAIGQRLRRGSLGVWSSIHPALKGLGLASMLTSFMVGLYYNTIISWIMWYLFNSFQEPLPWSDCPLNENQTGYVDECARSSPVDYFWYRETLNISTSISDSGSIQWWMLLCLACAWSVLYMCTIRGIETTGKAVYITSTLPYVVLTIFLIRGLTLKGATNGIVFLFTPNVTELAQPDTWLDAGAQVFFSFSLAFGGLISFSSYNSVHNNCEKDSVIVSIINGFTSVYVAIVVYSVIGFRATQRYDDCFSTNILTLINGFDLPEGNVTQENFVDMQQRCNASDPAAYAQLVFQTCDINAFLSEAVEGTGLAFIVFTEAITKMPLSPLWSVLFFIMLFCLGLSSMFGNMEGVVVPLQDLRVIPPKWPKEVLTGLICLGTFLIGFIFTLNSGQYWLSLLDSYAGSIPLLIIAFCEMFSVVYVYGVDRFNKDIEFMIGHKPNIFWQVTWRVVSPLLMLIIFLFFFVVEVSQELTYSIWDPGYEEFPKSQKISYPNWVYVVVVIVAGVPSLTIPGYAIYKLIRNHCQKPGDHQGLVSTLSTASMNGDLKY
T1 sequence (Q9HBJ8 15-222 partner): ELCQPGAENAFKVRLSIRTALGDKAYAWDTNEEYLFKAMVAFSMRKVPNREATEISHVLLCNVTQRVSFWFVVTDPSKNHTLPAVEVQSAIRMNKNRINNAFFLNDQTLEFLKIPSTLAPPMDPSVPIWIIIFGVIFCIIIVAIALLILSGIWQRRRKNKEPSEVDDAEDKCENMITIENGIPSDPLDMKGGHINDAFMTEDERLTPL
Nature of the experiment: Radiolabelled (3H) leucine uptake in CHO cells with doxycycline-inducible expression of human SLC6A19 and TMEM27 (Example B-1). The experiment is classed as cell-based. The note with it: CHO cells with doxycycline-inducible expression of human SLC6A19 and TMEM27, read-out: SLC6A19_Radioligand Uptake Assay IC50. The gist of the method: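 CHO cells were induced with doxycycline for 18 h at 37 °C, washed in HBSS, then exposed to compounds for 1 h: 8-point, 3-fold dilutions in duplicate, 0.5% DMSO final. Uptake measured by scintillation counting after 2 h shaking. Activity normalized with positive control as 0% and DMSO as 100%.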
Turning to `CC1(C(=O)NCc2cc3cc(Cl)c(OCc4cc(F)ccn4)cc3[nH]2)CC1` [Compound 35, N-((5-chloro-6-((4-fluoropyridin-2-yl)methoxy)-1H-indol-2-yl)methyl)-1-methylcyclopropane-1-carboxamide], the half-inhibitory concentration (IC50) – broadly, the concentration that gives 50% inhibition – worked out at 902 nM.

For the compound `CC1(C(=O)NCc2cc3cc(OC(F)(F)F)c(OCc4cscn4)cc3[nH]2)CC1` [Compound 434, 1-methyl-N-((6-(thiazol-4-ylmethoxy)-5-(trifluoromethoxy)-1H-indol-2-yl)methyl)cyclopropane-1-carboxamide], the IC50 came to 263 nM. As for `O=C(NCc1cc2cc(Cl)c(OCc3ccon3)cc2[nH]1)N1CCCCC1` [Compound 85, N-((5-chloro-6-(isoxazol-3-ylmethoxy)-1H-indol-2-yl)methyl)piperidine-1-carboxamide], the IC50 was 402 nM. On to `CC(C)c1cc2cc(CNC(=O)C3(C)CC3)[nH]c2cc1OCc1ccon1` [Compound 204, N-((5-isopropyl-6-(isoxazol-3-ylmethoxy)-1H-indol-2-yl)methyl)-1-methylcyclopropane-1-carboxamide], for which the IC50 was 536 nM.

Turning to `O=C(NCc1cc2cc(Cl)c(OCc3cscn3)cc2[nH]1)[C@@H]1C[C@H]1F` [Compound 543, (1S,2R)-N-((5-chloro-6-(thiazol-4-ylmethoxy)-1H-indol-2-yl)methyl)-2-fluorocyclopropane-1-carboxamide], the IC50 came to 145 nM. In the case of `Cc1cc(COc2cc3[nH]c(CNC(=O)[C@H](C)O)cc3cc2Cl)on1` [Compound 284, (S)-N-((5-chloro-6-((3-methylisoxazol-5-yl)methoxy)-1H-indol-2-yl)methyl)-2-hydroxypropanamide], the concentration for half-maximal inhibition (IC50) was 172 nM. On to `CC1(C(=O)NCc2cc3cc(Cl)c(CNc4cccnc4)cc3[nH]2)CC1` [Compound 610, N-((5-chloro-6-((pyridin-3-ylamino)methyl)-1H-indol-2-yl)methyl)-1-methylcyclopropane-1-carboxamide], for which the half-inhibitory concentration (IC50) amounted to 991 nM. On to `Cc1cc(COc2cc3[nH]c(CNC(=O)[C@H]4CCCN4)cc3cc2Cl)on1` [Compound 618, (R)—N-((5-chloro-6-((3-methylisoxazol-5-yl)methoxy)-1H-indol-2-yl)methyl)pyrrolidine-2-carboxamide], for which the IC50 was determined as 7510 nM. Regarding `O=C(NCc1cc2cc(Cl)c(CCc3cscn3)cc2[nH]1)N1CCCC1` [Compound 418, N-((5-chloro-6-(2-(thiazol-4-yl)ethyl)-1H-indol-2-yl)methyl)pyrrolidine-1-carboxamide], the IC50 was 163 nM. `Cc1cc(COc2cc3[nH]c(CNC(=O)C4(C#N)CC4)cc3cc2Cl)on1` [Compound 484, N-((5-chloro-6-((3-methylisoxazol-5-yl)methoxy)-1H-indol-2-yl)methyl)-1-cyanocyclopropane-1-carboxamide]: the IC50 turned out to be 199 nM. The value for `CC1(C(=O)NCc2cc3ccc(OCc4cc(C(F)(F)F)on4)cc3[nH]2)CC1` [Compound 354, 1-methyl-N-((6-((5-(trifluoromethyl)isoxazol-3-yl)methoxy)-1H-indol-2-yl)methyl)cyclopropane-1-carboxamide] was greater than 5280 nM; that for `Cc1cc(COc2cc3[nH]c(CNC(=O)C4(C)COC4)cc3cc2Cl)on1` [Compound 273, N-((5-chloro-6-((3-methylisoxazol-5-yl)methoxy)-1H-indol-2-yl)methyl)-3-methyloxetane-3-carboxamide] was 567 nM; that for `[2H]C([2H])([2H])C(=O)NCc1cc2cc(Cl)c(OCc3cscn3)cc2[nH]1` [Compound 570, N-((5-chloro-6-(thiazol-4-ylmethoxy)-1H-indol-2-yl)methyl)acetamide-2,2,2-d3] was 80.4 nM. Consider `O=C(NCc1cc2cc(Cl)c(OCc3cscn3)cc2[nH]1)[C@@H]1C[C@@H]1F` [Compound 542, (1S,2S)-N-((5-chloro-6-(thiazol-4-ylmethoxy)-1H-indol-2-yl)methyl)-2-fluorocyclopropane-1-carboxamide], for which the IC50 worked out at 123 nM.

As for `O=C(NCc1cc2cc(Cl)c(OCc3cocn3)cc2[nH]1)C1CC1` [Compound 429, N-((5-chloro-6-(oxazol-4-ylmethoxy)-1H-indol-2-yl)methyl)cyclopropanecarboxamide], the IC50 turned out to be 215 nM. As to `Cc1cc(COc2cc3[nH]c(CNC(=O)[C@H](O)CF)cc3cc2Cl)on1` [Compound 246, (S)-N-((5-chloro-6-((3-methylisoxazol-5-yl)methoxy)-1H-indol-2-yl)methyl)-3-fluoro-2-hydroxypropanamide], the IC50 was 411 nM.

As to `CN1CCC1C(=O)NCc1cc2cc(Cl)c(OCc3cscn3)cc2[nH]1` (racemic) [Compound 669, N-((5-chloro-6-(thiazol-4-ylmethoxy)-1H-indol-2-yl)methyl)-1-methylazetidine-2-carboxamide], the IC50 was 3880 nM. In the case of `Cc1ccnc(COc2cc3[nH]c(CNC(=O)C4(C)CC4)cc3cc2Cl)c1` [Compound 22, N-((5-chloro-6-((4-methylpyridin-2-yl)methoxy)-1H-indol-2-yl)methyl)-1-methylcyclopropane-1-carboxamide], the half-maximal inhibitory concentration (IC50) amounted to 2240 nM.

With `Cc1cc(COc2cc3[nH]c(CNC(=O)CN)cc3cc2Cl)on1` [Compound 617, 2-amino-N-((5-chloro-6-((3-methylisoxazol-5-yl)methoxy)-1H-indol-2-yl)methyl)acetamide], the IC50 was 3520 nM. Regarding `Cc1cc(COc2cc3[nH]c(CNC(=O)CN(C)C)cc3cc2Cl)on1` [Compound 579, N-((5-chloro-6-((3-methylisoxazol-5-yl)methoxy)-1H-indol-2-yl)methyl)-2-(dimethylamino)acetamide], the IC50 was determined as 587 nM. As for `CC(C)c1cc2cc(CNC(=O)C3(C)CC3)[nH]c2cc1OCc1cscn1` [Compound 186, N-((5-isopropyl-6-(thiazol-4-ylmethoxy)-1H-indol-2-yl)methyl)-1-methylcyclopropane-1-carboxamide], the IC50 amounted to 968 nM. The value for `CC1(C(=O)NCc2cc3cc(Cl)c(OCC4CC(F)(F)C4)cc3[nH]2)CC1` [Compound 353, N-((5-chloro-6-((3,3-difluorocyclobutyl)methoxy)-1H-indol-2-yl)methyl)-1-methylcyclopropane-1-carboxamide] was 1930 nM; that for `Cc1cc(COc2cc3[nH]c(CNC(=O)C[C@H](C)O)cc3cc2Cl)on1` [Compound 286, (S)-N-((5-chloro-6-((3-methylisoxazol-5-yl)methoxy)-1H-indol-2-yl)methyl)-3-hydroxybutanamide] was 910 nM; that for `Cc1cc(COc2cc3[nH]c(CNC(=O)C(C)F)cc3cc2Cl)on1` (racemic) [Compound 442, (S)-N-((5-chloro-6-((3-methylisoxazol-5-yl)methoxy)-1H-indol-2-yl)methyl)-2-fluoropropanamide and (R)-N-((5-chloro-6-((3-methylisoxazol-5-yl)methoxy)-1H-indol-2-yl)methyl)-2-fluoropropanamide] was 75.2 nM. As for `O=C(NCc1cc2cc(F)c(OCc3cscn3)cc2[nH]1)C1(C(F)F)CC1` [Compound 569, 1-(difluoromethyl)-N-((5-fluoro-6-(thiazol-4-ylmethoxy)-1H-indol-2-yl)methyl)cyclopropane-1-carboxamide], the figure is 121 nM. Regarding `CO[C@@H](C)C(=O)NCc1cc2cc(Cl)c(OCc3cc(C)no3)cc2[nH]1` [Compound 313, (S)-N-((5-chloro-6-((3-methylisoxazol-5-yl)methoxy)-1H-indol-2-yl)methyl)-2-methoxypropanamide], the 50% inhibitory concentration (IC50) was found to be 125 nM. Turning to `CC1(C(=O)NCc2cc3cc(OC(F)(F)F)c(CCc4cscn4)cc3[nH]2)CC1` [Compound 509, 1-methyl-N-((6-(2-(thiazol-4-yl)ethyl)-5-(trifluoromethoxy)-1H-indol-2-yl)methyl)cyclopropane-1-carboxamide], the half-inhibitory concentration (IC50) came to 1520 nM.

In the case of `O=C(NCc1cc2cc(F)c(OCc3cocn3)cc2[nH]1)N1CCC1` [Compound 358, N-((5-fluoro-6-(oxazol-4-ylmethoxy)-1H-indol-2-yl)methyl)azetidine-1-carboxamide], the IC50 is 319 nM. Regarding `Cc1cc(COc2cc3[nH]c(CNC(=O)C4(C)CC4)cc3cc2OC(F)F)on1` [Compound 606, N-((5-(difluoromethoxy)-6-((3-methylisoxazol-5-yl)methoxy)-1H-indol-2-yl)methyl)-1-methylcyclopropane-1-carboxamide], the IC50 is 320 nM. On to `CC1(C(=O)NCc2cc3cc(OC(F)F)c(OCc4ccon4)cc3[nH]2)CC1` [Compound 605, N-((5-(difluoromethoxy)-6-(isoxazol-3-ylmethoxy)-1H-indol-2-yl)methyl)-1-methylcyclopropane-1-carboxamide], for which the half-inhibitory concentration (IC50) came to 143 nM.
